In patent US20130209578A1, “Combinatory Cancer Treatment” (UNIVERSITE DE MONTREAL, priority 2010, published 2013):
pKd: −log10 of the molar value. “Also recorded” adds a separate entry of the source.

Legend:
purified eIF4E = details: cited from earlier work
[1] = Assouline et al, Blood 2009; cited from earlier work
primary AML specimens = experiment: colony forming assay in methyl cellulose, primary AML specimens; assay type: cell-based, human; details: Flt3 mutant versus Flt3 wildtype specimens, drug alone
Excerpt: (§1) FIG. 1 is a table summarizing the results of colony forming assays in methyl cellulose for primary AML specimens (purchased from the BLCQ) or specimens isolated from healthy volunteers (purchased from Stem Cell Technologies). A colony experiment typically runs for 14 days. A special media which supports hematopoietic cell growth was used (Methocult purchased from Stem Cell Technologies). Mutant refers to the presence of a mutation in the Flt3 gene (a common leukemia marker) and wildtype refers to Flt3 not being mutated in this specimen. Each experiment is carried out in quintuplicate with colony number plus/minus standard deviations given. […] Untreated controls were carried out in parallel for every single experiment. Experiments were done on specimens as described.

[2] = tested on: acute myeloid leukemia (AML); experiment: phase II clinical trial of ribavirin monotherapy in leukemia (AML) patients, NCT00559091; assay type: in vivo, human
Excerpt: Thus, because of its properties, the eukaryotic translation initiation factor, eIF4E, has become an appealing clinical target to treat patients diagnosed with cancer, in particular AML. […] 114, no. 2 (Jul. 9, 2009, Epub 2009 May 11).
In conducting clinical trial no. […] In some patients, monotherapy had no impact. […] In fact, leukemic cells become resistant to nearly all monotherapies within two (2) to four (4) months; such being due to naturally occurring phenomena such as selective evolution (Abboud et al., “Induction therapy for elderly patients with acute myeloid leukemia”, Blood Reviews (2008) 22: 311-320, and Melnick et al., “MDS and secondary AML display unique patterns and abundance of aberrant DNA methylation”, Blood. 2009 Oct. 15; 114(16):3448-58. Epub 2009 Aug. 3). To overcome this issue of resistance, it is not uncommon in the clinical field, and as for most treatments involving a monotherapy, to follow-up this treatment with chemotherapy, as it taught in Abboud et al. (supra) and Melnick et al. (supra). As it is well known, the use of chemotherapeutic agents has many secondary effects on patients, including and not limited to damage of normal cells, anemia, bleeding, constipation, fatigue, hair loss, infections, memory changes, swelling, and even death amongst many others. Conventional chemotherapy also requires a stay at the hospital so as to administer the chemotherapeutic agent(s) as well as supportive care for the side effects. In this connection, Abboud et al., in Blood Reviews (2008, supra), review treatment strategies of patients over 60 (which are the majority of AML patients), diagnosed with AML, and the morbidities and mortalities associated with chemotherapy.
Ribavirin was used extensively as a broad-spectrum anti-viral therapy.

eIF4E = target: T1, eIF4E (Homo sapiens, UniProt P06730); experiment: 3H ribavirin immunoprecipitation with eIF4E antibodies in FaDu cells; assay type: binding; details: 24 h, 0.66 micromolar 3H ribavirin, formaldehyde cross-linked
T1 construct: endogenous in cells; host or cells: FaDu cells
T1 sequence (P06730 whole entry): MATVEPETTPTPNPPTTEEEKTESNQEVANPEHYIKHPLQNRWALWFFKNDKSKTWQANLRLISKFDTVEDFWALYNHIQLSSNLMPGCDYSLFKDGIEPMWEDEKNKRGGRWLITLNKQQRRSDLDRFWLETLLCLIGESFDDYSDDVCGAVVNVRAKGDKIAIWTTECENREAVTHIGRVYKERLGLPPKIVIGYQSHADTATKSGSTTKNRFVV
Excerpt: Equal amounts of lysate were used for immunoprecipitation with antibodies to eIF4E or IgG controls. After 6 washes (W), beads were eluted in SDS Buffer. ⅕ of volume was used for western blot analysis and the rest for ^3H measurement. […] Input is a positive control showing that eIF4E is present in the cell lysate.
FIG. 3 is a western blot control for FIG. 2. This western blot confirms that antibodies to eIF4E immunoprecipitated eIF4E and that eIF4E was not found in the IgG control immunoprecipitation.

[3] = tested on: M1 and M2 AML specimens (with normal eIF4E levels); experiment: methyl-cellulose colony assay, M1 and M2 AML specimens with normal eIF4E; assay type: cell-based, human; details: ribavirin 1 micromolar
Excerpt: as §1

KG-1a cells = experiment: western blot of eIF4E targets, apoptosis and autophagy markers in KG-1a cells; assay type: cell-based, human; details: for Akt activation / LC3B level and cleavage (autophagy marker) / levels of eIF4E downstream targets XIAP, Mdm2, Mcl-1: KG1 cells; for levels of eIF4E downstream targets XIAP, Mdm2, Mcl-1: ribavirin 10 μM, azacytidine 3 μM
THP-1 cells = experiment: western blot of eIF4E targets, apoptosis and autophagy markers in THP-1 cells; assay type: cell-based, human; details: for HoxA9 protein levels: FIG. 7
[4] = tested on: M1 AML specimen with elevated eIF4E (M1-high4E); experiment: methyl-cellulose colony assay, M1 AML specimen with elevated eIF4E; assay type: cell-based, human; details: ribavirin 1 micromolar, azacytidine 3 micromolar
Excerpt: as §1

SMILES	pKd (purified eIF4E; Kentsis 2004, read-out: affinity constant for eIF4E)	Kd for purified eIF4E in vitro (purified eIF4E; Kentsis et al. 2004)	concentration in plasma from patients [1]	dependence of the effect on colony growth on Flt3 status (primary AML specimens)	clinical response of patients ([2]; Canada-wide clinical trial)	resistance to monotherapy in patients ([2]; clinical trial no. NCT00559091)	eIF4E protein (and RNA) levels in patients ([2]; phase II clinical trial, ribavirin monotherapy)	binding of 3H ribavirin to eIF4E in living cells (eIF4E)	colonies versus untreated cells [3]	drop in colonies versus untreated cells [3]	Akt activation (KG-1a cells)	LC3B level and cleavage (autophagy marker) (KG-1a cells)	levels of eIF4E downstream targets XIAP, Mdm2, Mcl-1 (KG-1a cells)	eIF4E protein levels (KG-1a cells; KG-1a and THP-1 cells, ribavirin 48 hours)	mdm2 protein level (eIF4E mRNA export target) (KG-1a cells; KG-1a cells, 48 hours)	HoxA9 protein levels (THP-1 cells)	mdm2 protein level (eIF4E mRNA export target) (THP-1 cells; THP-1 cells, 48 hours)	colonies versus untreated controls [4]	levels of NFkappaB subunit p65 (KG-1a cells; FIG. 6)	levels of eIF4E downstream targets XIAP, mdm2, Mcl-1 (THP-1 cells; THP-1 cells)
NC(=O)c1ncn([C@@H]2O[C@H](CO)[C@@H](O)[C@H]2O)n1 [ribavirin, 1-[(2R,3R,4S,5R)-3,4-dihydroxy-5-(hydroxymethyl)oxolan-2-yl]-1H-1,2,4-triazole-3-carboxamide]	~6.00	low micromolar range	10 to 20 µM	independent of Flt3 status	striking improvement	most if not all patients became resistant; also recorded: all eventually developed resistance	downregulation	binds directly to eIF4E in living cells; also recorded: eIF4E binds ^3H ribavirin	70-80%	~25%	reduces Akt activation	elevated LC3B levels	reduced the expression	do not change	downregulated	does not reverse this	downregulated			
Nc1ncn([C@@H]2O[C@H](CO)[C@@H](O)[C@H]2O)c(=O)n1 [azacytidine, 4-amino-1-β-D-ribofuranosyl-1,3,5-triazin-2(1H)-one]				independent of Flt3 status							leads to Akt activation	increases the total amount of LC3B protein	gross increase; also recorded: upregulated			elevates		about 80%	elevated	upregulated; also recorded: elevated
